Results as given in the supplement of paper PMC11208160.

experiment: recombinant UMI read abundance after kanamycin selection (control-corrected) (log10(CPM+1)); higher = more efficient recombination; extreme values may be limits of the assay; sequences stand for … in AGTGCAGAGAAAATCGGCCAGTTTTCTCTGCCTGCAGTCCGCATGCCGTGGGACCCCTTGGGTTCTAACCTGTTGCCTAGATTTATGCAGCGGACTGCCTTTCTCCCAAAGTGATAAACCGG…AGGTTGGTTTCACT; site = the 11-nt donor
Summary of the method: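 Reported values are log10(CPM+1) from a pooled Escherichia coli screen of donor and donor-binding-loop pairs for the IS621 bridge recombinase. Selection used IPTG (0.07 mM) plus kanamycin, against unselected plating, each in two replicates. Recombinant UMIs were amplified across the donor–target junction, sequenced, converted to CPM, averaged over replicates and scaled by control-derived factors.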
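Further: IS621 bridge recombinase in Escherichia coli cells against a fixed T5 target plasmid.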

Q: For “CAATCGACATGGACCGGTTTTCCCGGTAATCCGTATTTGGG (site CAATCGACTCC)”, which “recombinant UMI read abundance (log10)” value is on record?
A: Its value is 0.0993.

Q: Which “recombinant UMI read abundance (log10)” value does the source give for “CAATCGACATGGACCGGTTTTCCCGGTAATCCGTATTTGGG (site CACTCGACTCC)” here?
A: The value was 0.335.

Q: With “CAATCGACATGGACCGGTTTTCCCGGTAATCCGTATTTGGG (site CAGTCGACTCC)” as the sequence, how does the “recombinant UMI read abundance (log10)” value read?
A: The value was 0.

Q: With “CAATCGACATGGACCGGTTTTCCCGGTAATCCGTATTTGGG (site CATTCGACTCC)” as the sequence, how does the “recombinant UMI read abundance (log10)” value read?
A: The value was 0.0172.

Q: With “CAATCGACATGGACCGGTTTTCCCGGTAATCCGTATTTGTT (site CAATCGACTAA)” as the sequence, how does the “recombinant UMI read abundance (log10)” value read?
A: The value was 0.347.

Q: For “CAATCGACATGGACCGGTTTTCCCGGTAATCCGTATTTGTT (site CCATCGACTAA)”, which “recombinant UMI read abundance (log10)” value is on record?
A: Its value is 0.0214.

Q: With “CAATCGACATGGACCGGTTTTCCCGGTAATCCGTATTTGTT (site CGATCGACTAA)” as the sequence, how does the “recombinant UMI read abundance (log10)” value read?
A: Its value is 0.0271.

Q: For “CAATCGACATGGACCGGTTTTCCCGGTAATCCGTATTTGTT (site CTATCGACTAA)”, which “recombinant UMI read abundance (log10)” value is on record?
A: The value was 0.0699.

Q: Which “recombinant UMI read abundance (log10)” value does the source give for “CAATGCTCATGGACCGGTTTTCCCGGTAATCCGTATTTGAA (site AAATGCTCTTT)” here?
A: Its value is 0.129.

Q: With “CAATGCTCATGGACCGGTTTTCCCGGTAATCCGTATTTGAA (site CAAAGCTCTTT)” as the sequence, how does the “recombinant UMI read abundance (log10)” value read?
A: Its value is 0.393.

Q: Which “recombinant UMI read abundance (log10)” value does the source give for “CAATGCTCATGGACCGGTTTTCCCGGTAATCCGTATTTGAA (site CAACGCTCTTT)” here?
A: Its value is 1.58.

Q: For “CAATGCTCATGGACCGGTTTTCCCGGTAATCCGTATTTGAA (site CAAGGCTCTTT)”, which “recombinant UMI read abundance (log10)” value is on record?
A: Its value is 0.0098.

Q: For “CAATGCTCATGGACCGGTTTTCCCGGTAATCCGTATTTGAA (site CAATACTCTTT)”, which “recombinant UMI read abundance (log10)” value is on record?
A: Its value is 1.94.

Q: For “CAATGCTCATGGACCGGTTTTCCCGGTAATCCGTATTTGAA (site CAATCCTCTTT)”, which “recombinant UMI read abundance (log10)” value is on record?
A: Its value is 0.0831.

Q: Which “recombinant UMI read abundance (log10)” value does the source give for “CAATGCTCATGGACCGGTTTTCCCGGTAATCCGTATTTGAA (site CAATGATCTTT)” here?
A: Its value is 0.389.

Q: For “CAATGCTCATGGACCGGTTTTCCCGGTAATCCGTATTTGAA (site CAATGCACTTT)”, which “recombinant UMI read abundance (log10)” value is on record?
A: Its value is 0.182.

Q: With “CAATGCTCATGGACCGGTTTTCCCGGTAATCCGTATTTGAA (site CAATGCCCTTT)” as the sequence, how does the “recombinant UMI read abundance (log10)” value read?
A: Its value is 1.25.

Q: With “CAATGCTCATGGACCGGTTTTCCCGGTAATCCGTATTTGAA (site CAATGCGCTTT)” as the sequence, how does the “recombinant UMI read abundance (log10)” value read?
A: The value was 0.0142.

Q: Which “recombinant UMI read abundance (log10)” value does the source give for “CAATGCTCATGGACCGGTTTTCCCGGTAATCCGTATTTGAA (site CAATGCTCTAT)” here?
A: Its value is 1.03.

Q: For “CAATGCTCATGGACCGGTTTTCCCGGTAATCCGTATTTGAA (site CAATGCTCTCT)”, which “recombinant UMI read abundance (log10)” value is on record?
A: Its value is 0.924.

Q: Which “recombinant UMI read abundance (log10)” value does the source give for “CAATGCTCATGGACCGGTTTTCCCGGTAATCCGTATTTGAA (site CAATGCTCTGT)” here?
A: Its value is 0.818.

Q: With “CAATGCTCATGGACCGGTTTTCCCGGTAATCCGTATTTGAA (site CAATGCTCTTA)” as the sequence, how does the “recombinant UMI read abundance (log10)” value read?
A: The value was 0.908.

Q: For “CAATGCTCATGGACCGGTTTTCCCGGTAATCCGTATTTGAA (site CAATGCTCTTC)”, which “recombinant UMI read abundance (log10)” value is on record?
A: Its value is 0.687.

Q: With “CAATGCTCATGGACCGGTTTTCCCGGTAATCCGTATTTGAA (site CAATGCTCTTG)” as the sequence, how does the “recombinant UMI read abundance (log10)” value read?
A: The value was 0.554.

Q: With “CAATGCTCATGGACCGGTTTTCCCGGTAATCCGTATTTGAA (site CAATGCTCTTT)” as the sequence, how does the “recombinant UMI read abundance (log10)” value read?
A: Its value is 2.57.

Q: For “CAATGCTCATGGACCGGTTTTCCCGGTAATCCGTATTTGAA (site CAATGGTCTTT)”, which “recombinant UMI read abundance (log10)” value is on record?
A: The value was 0.0124.

Q: Which “recombinant UMI read abundance (log10)” value does the source give for “CAATGCTCATGGACCGGTTTTCCCGGTAATCCGTATTTGAA (site CAATGTTCTTT)” here?
A: Its value is 0.

Q: With “CAATGCTCATGGACCGGTTTTCCCGGTAATCCGTATTTGAA (site CAATTCTCTTT)” as the sequence, how does the “recombinant UMI read abundance (log10)” value read?
A: The value was 0.

Q: With “CAATGCTCATGGACCGGTTTTCCCGGTAATCCGTATTTGAA (site CACTGCTCTTT)” as the sequence, how does the “recombinant UMI read abundance (log10)” value read?
A: The value was 0.0585.

Q: With “CAATGCTCATGGACCGGTTTTCCCGGTAATCCGTATTTGAA (site CAGTGCTCTTT)” as the sequence, how does the “recombinant UMI read abundance (log10)” value read?
A: The value was 0.102.

Q: Which “recombinant UMI read abundance (log10)” value does the source give for “CAATGCTCATGGACCGGTTTTCCCGGTAATCCGTATTTGAA (site CATTGCTCTTT)” here?
A: The value was 0.408.

Q: Which “recombinant UMI read abundance (log10)” value does the source give for “CAATGCTCATGGACCGGTTTTCCCGGTAATCCGTATTTGAA (site CCATGCTCTTT)” here?
A: Its value is 0.461.

Q: Which “recombinant UMI read abundance (log10)” value does the source give for “CAATGCTCATGGACCGGTTTTCCCGGTAATCCGTATTTGAA (site CGATGCTCTTT)” here?
A: The value was 0.0125.

Q: With “CAATGCTCATGGACCGGTTTTCCCGGTAATCCGTATTTGAA (site CTATGCTCTTT)” as the sequence, how does the “recombinant UMI read abundance (log10)” value read?
A: Its value is 0.217.

Q: With “CAATGCTCATGGACCGGTTTTCCCGGTAATCCGTATTTGAA (site GAATGCTCTTT)” as the sequence, how does the “recombinant UMI read abundance (log10)” value read?
A: The value was 0.00437.

Q: With “CAATGCTCATGGACCGGTTTTCCCGGTAATCCGTATTTGAA (site TAATGCTCTTT)” as the sequence, how does the “recombinant UMI read abundance (log10)” value read?
A: The value was 0.0133.

Q: Which “recombinant UMI read abundance (log10)” value does the source give for “CAATGCTCATGGACCGGTTTTCCCGGTAATCCGTATTTGTA (site CAATGCTCTTA)” here?
A: The value was 3.1.

Q: With “CAATGCTCATGGACCGGTTTTCCCGGTAATCCGTATTTGTA (site CAATGCTCTTC)” as the sequence, how does the “recombinant UMI read abundance (log10)” value read?
A: The value was 0.746.

Q: Which “recombinant UMI read abundance (log10)” value does the source give for “CAATGCTCATGGACCGGTTTTCCCGGTAATCCGTATTTGTA (site CAATGCTCTTG)” here?
A: Its value is 2.25.

Q: For “CAATGCTCATGGACCGGTTTTCCCGGTAATCCGTATTTGTA (site CAATGCTCTTT)”, which “recombinant UMI read abundance (log10)” value is on record?
A: The value was 1.55.

Q: With “CAATTCCCATGGACCGGTTTTCCCGGTAATCCGTATTTGAT (site CAATTCCCTAA)” as the sequence, how does the “recombinant UMI read abundance (log10)” value read?
A: The value was 0.00345.

Q: With “CAATTCCCATGGACCGGTTTTCCCGGTAATCCGTATTTGAT (site CAATTCCCTAC)” as the sequence, how does the “recombinant UMI read abundance (log10)” value read?
A: The value was 0.

Q: With “CAATTCCCATGGACCGGTTTTCCCGGTAATCCGTATTTGAT (site CAATTCCCTAG)” as the sequence, how does the “recombinant UMI read abundance (log10)” value read?
A: The value was 0.

Q: For “CAATTCCCATGGACCGGTTTTCCCGGTAATCCGTATTTGAT (site CAATTCCCTAT)”, which “recombinant UMI read abundance (log10)” value is on record?
A: The value was 1.7.

Q: Which “recombinant UMI read abundance (log10)” value does the source give for “CAATTCCCATGGACCGGTTTTCCCGGTAATCCGTATTTGCG (site CAATTCCCTAG)” here?
A: Its value is 1.26.

Q: With “CAATTCCCATGGACCGGTTTTCCCGGTAATCCGTATTTGCG (site CAATTCCCTCG)” as the sequence, how does the “recombinant UMI read abundance (log10)” value read?
A: Its value is 2.33.

Q: For “CAATTCCCATGGACCGGTTTTCCCGGTAATCCGTATTTGCG (site CAATTCCCTGG)”, which “recombinant UMI read abundance (log10)” value is on record?
A: Its value is 0.

Q: With “CAATTCCCATGGACCGGTTTTCCCGGTAATCCGTATTTGCG (site CAATTCCCTTG)” as the sequence, how does the “recombinant UMI read abundance (log10)” value read?
A: Its value is 1.67.

Q: With “CAATTGCCATGGACCGGTTTTCCCGGTAATCCGTATTTGCT (site CAATTACCTAG)” as the sequence, how does the “recombinant UMI read abundance (log10)” value read?
A: The value was 0.

Q: For “CAATTGCCATGGACCGGTTTTCCCGGTAATCCGTATTTGCT (site CAATTCCCTAG)”, which “recombinant UMI read abundance (log10)” value is on record?
A: The value was 0.

Q: For “CAATTGCCATGGACCGGTTTTCCCGGTAATCCGTATTTGCT (site CAATTGCCTAG)”, which “recombinant UMI read abundance (log10)” value is on record?
A: Its value is 1.32.

Q: Which “recombinant UMI read abundance (log10)” value does the source give for “CAATTGCCATGGACCGGTTTTCCCGGTAATCCGTATTTGCT (site CAATTTCCTAG)” here?
A: The value was 0.

Q: With “CACAAAACATGGACCGGTTTTCCCGGTAATCCGTATTTGGC (site CACAAAACTGC)” as the sequence, how does the “recombinant UMI read abundance (log10)” value read?
A: Its value is 1.79.

Q: With “CACAAACCATGGACCGGTTTTCCCGGTAATCCGTATTTGGT (site AACAAACCTAC)” as the sequence, how does the “recombinant UMI read abundance (log10)” value read?
A: Its value is 0.

Q: Which “recombinant UMI read abundance (log10)” value does the source give for “CACAAACCATGGACCGGTTTTCCCGGTAATCCGTATTTGGT (site CACAAACCTAC)” here?
A: Its value is 0.

Q: With “CACAAACCATGGACCGGTTTTCCCGGTAATCCGTATTTGGT (site GACAAACCTAC)” as the sequence, how does the “recombinant UMI read abundance (log10)” value read?
A: Its value is 0.

Q: With “CACAAACCATGGACCGGTTTTCCCGGTAATCCGTATTTGGT (site TACAAACCTAC)” as the sequence, how does the “recombinant UMI read abundance (log10)” value read?
A: Its value is 0.
